The EC50 is the midpoint of the concentration-response curve.

“Also recorded” adds a separate entry of the source. Where two headings read alike, the source gives them in different places.

In series [1] the test system is patient. Conditions: human, in vivo.
Series [2] deals with organic nitrate ester reductase activity (mtALDH) in aorta rings. The series can be described thus: 1,2-GDN formation from GTN in aorta rings. The class given is cell-based, New Zealand white rabbits. Conditions: for activity at 1000 µM: Oryctolagus cuniculus, read-out: 1,2-GDN generation in the aorta rings, % of control activity.
In series [3] the test system is cGMP accumulation in the aortic rings. Briefly: cGMP accumulation in aortic rings. In kind it is cell-based, New Zealand white rabbits. Conditions: for effect on increase in cGMP produced by GTN: 1 μM for 1 minute.
The subject of series [4] is rabbit thoracic aorta rings. The series can be described thus: tissue or blood. The class given is cell-based, New Zealand white rabbits. The note with it: for EC50: Oryctolagus cuniculus, read-out: EC50 for GTN relaxation.
Series [5] has as its target T1, mouse mitochondria aldehyde dehydrogenase (mtALDH) purified from RAW264.7 cells (Mus musculus, UniProt P47738).
T1 construct: Mouse macrophage RAW 264.7 cells were homogenized in a 30 mM phosphate buffer; endogenous in cells; host or cells: mouse macrophage RAW 264.7 cells (endogenous enzyme purified over DEAE-cellulose, Q-sepharose, Butyl-Sepharose and hydroxyapatite)
T1 sequence (P47738 20-519): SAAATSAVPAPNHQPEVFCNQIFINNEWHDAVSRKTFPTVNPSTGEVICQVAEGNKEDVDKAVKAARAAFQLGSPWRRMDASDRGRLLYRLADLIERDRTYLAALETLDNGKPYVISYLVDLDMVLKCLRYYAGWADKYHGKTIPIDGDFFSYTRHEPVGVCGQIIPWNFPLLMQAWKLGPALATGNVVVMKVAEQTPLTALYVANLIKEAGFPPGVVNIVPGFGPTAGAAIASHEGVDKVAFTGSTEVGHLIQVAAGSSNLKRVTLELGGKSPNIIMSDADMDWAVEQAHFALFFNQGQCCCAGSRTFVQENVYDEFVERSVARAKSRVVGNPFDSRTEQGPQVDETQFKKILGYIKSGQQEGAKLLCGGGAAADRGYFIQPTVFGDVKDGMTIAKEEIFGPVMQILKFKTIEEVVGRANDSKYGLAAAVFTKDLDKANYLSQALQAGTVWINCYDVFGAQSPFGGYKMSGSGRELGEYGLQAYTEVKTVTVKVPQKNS
The series can be described thus: GTN reductase activity of purified enzyme (1,2-GDN formation from [14C]GTN, TLC-LSS). The class given is biochemical. The note with it: for restoration of catalytic activity lost upon removal of DTT by dialysis: purified enzyme after dialysis.

The target of series [6] is T2, mtALDH (Oryctolagus cuniculus, UniProt G1SUY2).
T2 construct: from tissue; host or cells: thoracic aorta rings of New Zealand white rabbits, made GTN tolerant; partially purified preparation
T2 sequence (G1SUY2 1-521): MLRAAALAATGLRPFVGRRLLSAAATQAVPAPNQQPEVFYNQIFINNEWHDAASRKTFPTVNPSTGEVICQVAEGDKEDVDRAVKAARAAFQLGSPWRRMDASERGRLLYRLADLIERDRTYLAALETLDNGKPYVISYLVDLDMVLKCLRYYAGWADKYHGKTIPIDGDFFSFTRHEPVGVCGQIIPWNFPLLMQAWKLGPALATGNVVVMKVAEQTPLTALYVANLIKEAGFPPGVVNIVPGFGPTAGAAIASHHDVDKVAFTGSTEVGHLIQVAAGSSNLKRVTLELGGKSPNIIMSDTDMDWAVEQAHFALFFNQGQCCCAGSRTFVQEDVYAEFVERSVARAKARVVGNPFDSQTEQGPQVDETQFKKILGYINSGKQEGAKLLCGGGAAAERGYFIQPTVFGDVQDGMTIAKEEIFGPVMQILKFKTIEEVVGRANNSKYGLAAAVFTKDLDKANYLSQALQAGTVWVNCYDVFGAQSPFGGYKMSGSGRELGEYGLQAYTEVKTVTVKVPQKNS
The series can be described thus: mtALDH activity in partially purified preparations of GTN tolerant aortic rings. The class given is biochemical, rabbit.

Series [7] concerns mitochondria isolated from RAW 264.7 cells. The series can be described thus: 1,2-GDN generation from GTN by mitochondria isolated from RAW 264.7 cells. In kind it is biochemical, mouse. The method, then:
During protein purification, the assay mixtures (1 ml samples) contained 100 mM KPi, pH7.5, 0.5 mM EDTA, 1 mM NADH, 1 mM NADPH, 0.1 or 1 μM [^14C]GTN and protein sample from column fractions. After incubation at 37° C. for 10 to 30 minutes, the reaction was stopped (by adding dry ice) and GTN and its metabolites were extracted by 3×4 ml ether, the ether phase was combined and the solvent was evaporated by a stream of nitrogen. The final volume was controlled to less than 100 μl in ethanol for subsequent thin layer chromatography (TLC) separation and liquid scintillation spectrometry counting, i.e., (TLC-LSS), to determine amount of [^14C]1,2-GDN, to select samples with enzymatic activity (i.e., 1,2-GDN producing activity).
At the end of the procedure, the protein had been purified to near homogeneity (90 fold), with a 14.4% overall yield; its estimated molecular weight on SDS gel is about 53 kDa. N-terminal sequence of 30 amino acid residues was obtained by Edman degradation and matched exactly with mouse mitochondria aldehyde dehydrogenase.

For series [8] the following is noted: cited from earlier work.
Series [9] relates to anesthetized rabbits (arterial blood pressure). Briefly: Systemic hypotensive effects of GTN infusion in anesthetized rabbits. The class given is in vivo, New Zealand white rabbits. Conditions: for effect on SNP or adenosine mediated hypotension: inhibitor (~5 mM) infused intravenously 20 minutes prior; for effect on hypotensive effects of GTN: inhibitor (~5 mM) infused intravenously 20 minutes prior to GTN.

Series [10] addresses T3, mtALDH isolated from mouse macrophage RAW 264.7 (Mus musculus, UniProt P47738).
T3 construct: Mouse macrophage RAW 264.7 cells were homogenized in a 30 mM phosphate buffer; endogenous in cells; host or cells: mouse macrophage RAW 264.7 cells (endogenous enzyme purified over DEAE-cellulose, Q-sepharose, Butyl-Sepharose and hydroxyapatite)
T3 sequence (P47738 20-519): T1 sequence (P47738 20-519)
The class given is biochemical.

[11] abbreviates: 1 mM, 20 minutes before 1 μM GTN, 5 minutes 37° C.

For the compound `Cc1cnc(C(=O)NCCc2ccc(S(=O)(=O)NC(=O)NC3CCCCC3)cc2)cn1` [glipizide], in [1] (iv), the clinical outcome is “preservation of left ventricular function”.
For the compound acetaldehyde, the “1,2-GDN generation in the aorta rings, % of control activity” value in series [2] (setting [11]) is 52.5%. Besides, in series [3], the “effect on increase in cGMP produced by GTN” value is “completely blocked”. Besides, in series [4], the “increase of GTN EC50 by inhibitor/competitive substrate” value came out at 4.4 fold. Moreover, the clinical outcome in series [1] (iv) is given as “normalizing blood pressure”.
Turning to `NCCCNCCSP(=O)(O)O` [amifostine], in series [1], the clinical outcome is “resolution rectal pain” and the “improvement in FEV 1” value was determined as 12%.
With `CCON=O` [ethyl nitrite], in series [1] (iv), the clinical outcome is reported as “Anginal symptoms resolve” and the “systolic blood pressure after fall” value is given as 120 mm Hg.
Turning to `O=[N+]([O-])OCC(CO[N+](=O)[O-])O[N+](=O)[O-]` [GTN, glyceryl trinitrate], the “decrease of reductase activity as measured by 1,2-GDN formation” value in series [2] (GTN-tolerant rings compared to control) is 60.4%. Besides, the “1,3-GDN formation from GTN” value in series [5] (purified enzyme) is given as “below detection limits”. Further, the “rates of 1,2-GDN formation versus GTN concentration” value in [5] (purified enzyme, GTN 0.1 to 10 μM) is on record as “linear”. In addition, in [5] (purified enzyme, n=3), the “product ratio of 1,2-GDN/NOx (nitrite plus nitrate)” value was 0.73±0.05 and the “product ratio of 1,2-GDN/nitrite” value stood at 0.83±0.14. Also, the “activity of mtALDH” value in series [6] is listed as “inhibited”. The “1,2-GDN generation from GTN” value in series [7] (mitochondria isolated from RAW 264.7 cells, 1 mM NADH/NADPH) amounted to 0.29 nmol/h/mg. For the same compound, in [7] (mitochondria-free supernatant), the “1,2-GDN generation from GTN, residual activity” value was “no residual activity”. In [3] (GTN tolerant rings), the “cGMP accumulation from GTN treatment” value is recorded as “abolished”. In series [4] (0.5 h), the EC50 stood at 3760 ± 2050 nM. In addition, the EC50 in [4] turned out to be 22.6 ± 9.2 nM. Moreover, the solubility in glycerol entry in series [8] is given as “sparingly soluble”. For the same compound, the “blood pressure after drop” value in series [1] was determined as 100 mm Hg.
For `O=C(O)CCCC[C@@H]1CCSS1` (racemic) [lipoic acid], the “dependence of 1,2-GDN formation by purified enzyme on added dithiol” value in series [5] (purified enzyme) was “could only catalyze 1,2-GDN formation when dithiol”.
Take `O=CC[N+](=O)[O-]` [nitroacetaldehyde]: the clinical outcome in series [1] (0.1 mg/kg) was “relief of dyspnea”.
With `OC(O)C(Cl)(Cl)Cl` [chloral hydrate], in series [2] (setting [11]), the activity at 1000 µM was 27.6%. In series [9], the “effect on SNP or adenosine mediated hypotension” value is recorded as “little or no effect” and the “effect on hypotensive effects of GTN” value is recorded as “significantly attenuated”. The “effect on increase in cGMP produced by GTN” value in [3] is given as “completely blocked”. Also, in series [4], the “increase of GTN EC50 by inhibitor/competitive substrate” value was 8.9 fold. Besides, the clinical outcome in series [1] is “resolution of symptoms; also recorded: without a decline in blood pressure; also recorded: without a fall in blood pressure; also recorded: improvement in wheezing and shortness of breath”. Also, the clinical outcome in series [1] (iv) is reported as “left ventricular function is largely preserved”. In series [1] (po), the clinical outcome is “blood pressure is restored” and the “systolic blood pressure after rise” value is on record as 160 mm Hg.
On to `[Cl-].[O-][N+](=S)CCCC[P+](c1ccccc1)(c1ccccc1)c1ccccc1` [thionitrobutyltriphenylphosphonium chloride], for which, in series [1] (iv, 15 mg/kg), the clinical outcome was “relief of symptoms and enhanced sensitivity to nitroglycerin”.
With `N[C@@H](CCC(=O)N[C@@H](CS)C(=O)NCC(=O)O)C(=O)O` [glutathione], the “restoration of catalytic activity lost upon removal of DTT by dialysis” value in series [5] was “not”.
Consider `CCCCCO[N+](=O)[O-]` [amyl nitrate], for which the clinical outcome in series [1] is “improvement in dyspnea and symptoms of fatigue”.
On to `O=C(O)CCCC[C@@H](S)CCS` (racemic) [DHLA, dihydrolipoic acid], for which, in [1] (iv, 50 mg/kg), the clinical outcome is “reverses tolerance and maintains mtALDH activity”. In [10], the “activation of mtALDH to cause conversion of GTN to 1,2-GDN (FIG. 1)” value (shortened to “activation of mtALDH”) is “best activators”.
Take `N#CN` [cyanamide]: the activity at 1000 µM in series [2] (setting [11]) worked out at 56.9%. For the same compound, in [9], the “effect on SNP or adenosine mediated hypotension” value is “little or no effect” and the “effect on hypotensive effects of GTN” value is listed as “significantly attenuated”. In series [3] (100 μM-10 nM), the “reduction of the cGMP increase produced by GTN” value worked out at 46%. Further, the “increase of GTN EC50 by inhibitor/competitive substrate” value in [4] is reported as 4.9 fold.
For the compound nitric oxide [NO solutions], in [4], the “effect of preincubation with the mtALDH inhibitors on relaxation induced by this vasodilator” value is “did not attenuate relaxation”.
With `O=NOC(CO)CO` [2 glycerol mononitrite, 2-glycerol mononitrite], in series [1], the “angiography the following year” value is “no progression of atherosclerosis” and the clinical outcome is “relief of symptoms”.
`O[C@H](CS)[C@H](O)CS` (racemic) [DTT, dithiothreitol]: the “dependence of 1,2-GDN formation by purified enzyme on added dithiol” value in series [5] (purified enzyme) is recorded as “could only catalyze 1,2-GDN formation when dithiol”. Further, the “restoration of catalytic activity lost upon removal of DTT by dialysis” value in series [5] is “fully restored”. Also, in series [10], the “activation of mtALDH” value is “best activators”.
On to `O=C(O)CCP(CCC(=O)O)CCC(=O)O` [TCEP, tris(2-carboxyethylphosphine)], for which the clinical outcome in series [1] was “tolerance is reversed and angina resolves”. Further, the “activation of mtALDH” value in [10] (1 mM GTN, excess mtALDH, 37° C. 10-30 minutes, DTT 1 mM, DHLA 0.5 and 0.1 mM, TCEP 1 mM) is listed as “best activators”.
For `CCN(CC)C(=S)SSC(=S)N(CC)CC` [antibuse], in series [1] (po), the clinical outcome is on record as “without headache or symptomatic hypotension”.
Regarding `O=[N+]([O-])O[C@@H]1CO[C@H]2[C@@H]1OC[C@@H]2O` [Imdur], the cross-tolerance with nitroglycerin result in [1] is recorded as “no cross-tolerance”.
For `N[C@@H](CCC(=O)N[C@@H](CSN=O)C(=O)NCC(=O)O)C(=O)O` [S-nitrosoglutathione], the clinical outcome in series [1] was “improvement of dyspnea and relief of angina; also recorded: relief of symptoms”.
